These results are taken from US10059663B2, “Aromatic compound and use thereof” (Kyoto Pharmaceutical Industries, Ltd., priority 2013, dated 2018).

Bounds are passed on as bounds.

Test [1] deals with Mouse bone marrow-derived mesenchymal cell line ST2 cells. In words: Osteoblast differentiation test (alkaline phosphatase activity). The format is cell-based. The following applies: ST-2, 96 h, at 0.1 μg/mL, 4 days of culture, absorbance at 405 nm, DMSO control = 100%, read-out: alkaline phosphatase activity (increase rate in absorbance, control as 100%). The procedure:
Mouse bone marrow-derived mesenchymal cell line ST2 cells (source of supply: RIKEN) were seeded in α-MEM medium containing 10% fetal bovine serum (source of supply: GIBCO BRL Cat. No. 12000-022) in a 96 well plate at a cell density of 4×10^3 cells/0.1 mL/well, and cultured for 24 hr under the conditions of 37° C., 5% CO2. Then, each test compound was added at a final concentration of 0.001-10 μM, and the final concentration 0.1% (v/v) of DMSO was added to the control. After 4 days of culture, alkaline phosphatase (ALP) activity was measured by the following method.
The medium in the cultured 96 well plate was removed, the cells were washed with PBS buffer (KCl 0.2 g/L, KH2PO4 0.2 g/L, Na2HPO4.12H2O 2.9 g/L, NaCl 8 g/L) (100 μL/well), cell lysate (10 mM MgCl2, 2% (v/v) Triton X-100) (50 μL/well) was added, and the mixture was stirred at room temperature for 3 min. A substrate solution (50 mM diethanolamine (Wako Pure Chemical Industries, Ltd. Cat. No. 099-03112), 20 mM […] (Nacalai Tesque Cat. No. 25019-81)) (50 μL/well) was added, and the mixture was left standing at room temperature for 9 min. 1N NaOH 50 μL/well was added to discontinue the reaction, and the absorbance at 405 nm was measured by a microplate reader (Dainippon Pharmaceutical Co., Ltd.)
An increase rate (%) in the absorbance by the test compound was calculated based on the absorbance of the control as 100%, and the differentiation degree of the osteoblast was evaluated.

The subject of a further test is female F344 rats. In words: Influence on bone density (ovariectomy, femur, DXA). The format is in vivo, rat. The conditions noted are these: at not more than 10 mg/kg; orally once per day, 6 or 7 days per week, 8 weeks; ovariectomized 12-week-old female F344 rats; femur by DXA. The text has this:
12-week-old female F344 rats (SLC) underwent ovariectomy or sham surgery under anesthesia. The test compound was suspended in 0.5% methylcellulose solution (Wako Pure Chemical Industries, Ltd. Cat. No. 133-14255) and orally administered once per day, 6 or 7 days per week, from two days after the surgery. A 0.5% methylcellulose solution was orally administered to a control group. At 8 weeks from the administration, they were euthanized by drawing the whole blood from the abdominal artery under anesthesia, and the left and right femurs were excised.
The soft tissues were removed from the excised femurs, and the bone density was measured by DXA device DCS-600R (Aloka Co., Ltd.). The bone density was evaluated for the whole femur as well as the whole divided into three equal portions of proximal end, diaphysis and distal end portion.

For `CC(O)c1ccc(C(N)=O)cc1Oc1ccc(OCCOC2CCOCC2)cc1` (stereo not drawn) [Example 38, 4-(1-hydroxyethyl)-3-{4-[2-(tetrahydropyran-4-yloxy)ethoxy]phenoxy}benzamide], in test [1], the activity at 0.1 µg/mL was at least 200%. Besides, the bone density result with female F344 rats was “significantly increased”.
Taken in the same sequence, the figures for `C[C@@H](O)c1ccc(C(N)=O)cc1Oc1ccc(OCCOC2CCOCC2)cc1` [Example 43, (R)-4-(1-hydroxyethyl)-3-{4-[2-(tetrahydropyran-4-yloxy)ethoxy]phenoxy}benzamide] were at least 200% and “significantly increased”.
For `C[C@@H](O)c1ccc(C(N)=O)cc1Oc1ccc(OCCOC2CCOC2)cc1` (stereo partly drawn) [Example 77] the same measures were at least 200% and “significantly increased”.
`CC(=O)c1ccc(C(N)=O)cc1Oc1ccc(OCCOC2CCOC2)cc1` (stereo not drawn) [Example 67]: in test [1], the activity at 0.1 µg/mL is at least 200%. In addition, the bone density entry in the test on female F344 rats was “significantly increased”.
For the compound `COc1cc(Nc2ccc(N3CC(OCCO)C3)cc2)c(NC(C)=O)cn1` [Example 1, N-(4-{4-[3-(2-hydroxyethoxy)azetidin-1-yl]phenylamino}-6-methoxypyridin-3-yl)acetamide], the activity at 0.1 µg/mL in test [1] is at least 200%. Besides, the bone density result in the test on female F344 rats is listed as “significantly increased”.
For `CC(=O)c1ccc(C(N)=O)cc1Oc1ccc(OCCOC2CCOCC2)cc1` [Example 32, 4-acetyl-3-{4-[2-(tetrahydropyran-4-yloxy)ethoxy]phenoxy}benzamide] the same measures were at least 200% and “significantly increased”.
